Source: ChEMBL document CHEMBL5726067, “[8-(phenylsulfonyl)-3,8-diazabicyclo[3.2.1]oct-3-yl](1H-1,2,3-triazol-4-yl)methanones” (2019)

Molecular target: T1, Aldo-keto reductase family 1 member C3 (Homo sapiens, UniProt P42330)
T1 sequence (P42330 whole entry): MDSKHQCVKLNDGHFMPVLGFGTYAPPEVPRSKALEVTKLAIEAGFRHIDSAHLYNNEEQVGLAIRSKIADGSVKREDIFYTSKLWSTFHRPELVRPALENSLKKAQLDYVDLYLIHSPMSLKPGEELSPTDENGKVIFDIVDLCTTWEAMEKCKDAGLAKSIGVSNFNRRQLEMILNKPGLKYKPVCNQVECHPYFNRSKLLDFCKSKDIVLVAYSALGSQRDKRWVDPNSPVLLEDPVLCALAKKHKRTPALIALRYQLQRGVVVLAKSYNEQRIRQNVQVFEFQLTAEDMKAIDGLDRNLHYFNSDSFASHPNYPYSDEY
Assay: AKR1C3-Inhibitory Activity Assay: The enzyme used was recombinant human AKR1C3 (Aldo-keto reductase family 1 member C3; GenBank Accession No. NM_003739). This was expressed in E. coli as GST (glutathione S transferase) fusion protein and purified by glutathione Sepharose affinity chromatography. The GST was removed by digestion with thrombin and subsequent size exclusion chromatography (Dufort, I., Rheault, P., Huang, X F., Soucy, P., and Luu-The, V., Endocrinology 140, 568-574 (1999)).For the assay, 50 nl of a 100-fold concentrated solution of the test substance in DMSO were pipetted into a black low-volume 384-well microtiter plate (Greiner Bio-One, Frickenhausen, Germany), 2.5 μl of a solution of AKR1C3 in assay buffer [50 mM potassium phosphate buffer pH 7, 1 mM DTT, 0.0022% (w/v) Pluronic F-127, 0.01% BSA (w/v) and protease inhibitor cocktail (Complete, EDTA-free Protease Inhibitor Cocktail from Roche)] were added and the mixture was incubated for 15 min to allow pre-binding of the substances to the enzyme prior to the enzyme reaction. The enzyme reaction was then started by addition of 2.5 μl of a solution of NADPH (20 μM→final concentration in 5 μl of assay volume is 10 μM) and Coumberone (0.6 μM→final concentration in 5 μl of assay volume is 0.3 μM) in assay buffer, and the resulting mixture was incubated at 22° C. for the reaction time of typically 90 min. […]

IC50	Compound
0.7 nM	O=C(c1cnn[nH]1)N1CC2CCC(C1)N2S(=O)(=O)c1ccccc1Br
1.4 nM	O=C(c1cnn[nH]1)N1CC2CCC(C1)N2S(=O)(=O)c1ccccc1Cl
